Measurements: ChEMBL document CHEMBL1154920, “Rare casbane diterpenoids from the Hainan soft coral Sinularia depressa” (J Nat Prod, 2010)

Experiments:
[1] = system: HepG2; assay: Cytotoxicity against human HepG2 cells after 72 hrs by MTT assay; assay type: functional, cell-based; details: HepG2, 72 h
[2] = system: Staphylococcus aureus; assay: Antibacterial activity against Staphylococcus aureus by broth macrodilution method; assay type: functional, organism-based
[3] = system: SW1990; assay: Cytotoxicity against human SW1990 cells after 72 hrs by MTT assay; assay type: functional, cell-based; details: SW1990, 72 h
[4] = system: Escherichia coli; assay: Antibacterial activity against Escherichia coli by broth macrodilution method; assay type: functional, organism-based

**Q.** With `C/C1=C\[C@@H](O)C/C(C)=C/CC(=O)/C(C)=C/[C@@H]2[C@H](CC1)C2(C)C` as the compound, how does the IC50 [1] read?
**A.** Its IC50 is 61 µM.

**Q.** What about the IC50 [2] of the same compound?
**A.** Its IC50 is 17 µM.

**Q.** What about the IC50 [3] of the same compound?
**A.** The IC50 was 37 µM.

**Q.** And the IC50 [4]?
**A.** Its IC50 is 17 µM.
